Reference: the supplement of paper PMC11451515

System: SEM cells
Experiment: cell viability relative to DMSO control; higher = less cytotoxic
Conditions: 48 h
How it was run: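 Viability, reported as a per-plate percentage of DMSO wells with cell-free wells as background, came from CellTiter-Glo One luminescence. Reading took place after 48 h at 37°C. Before that, NOMO1 or SEM (500 cells/well) or P12-Ichikawa (1000 cells/well) leukemia cells, adapted for at least four passages in each medium, were seeded in 1536-well plates (5 μl) and pin-dosed with library compounds in DMSO, 47 μM to 0.79 nM over 11 threefold points.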

[1] = HPLM + 10% dialyzed FBS, 0.000781 µM
[2] = HPLM + 10% dialyzed FBS, 0.00234 µM
[3] = HPLM + 10% dialyzed FBS, 0.00702 µM
[4] = HPLM + 10% dialyzed FBS, 0.0211 µM
[5] = HPLM + 10% dialyzed FBS, 0.0632 µM
[6] = HPLM + 10% dialyzed FBS, 0.19 µM
[7] = HPLM + 10% dialyzed FBS, 0.569 µM
[8] = HPLM + 10% dialyzed FBS, 1.71 µM
[9] = HPLM + 10% dialyzed FBS, 5.12 µM
[10] = HPLM + 10% dialyzed FBS, 15.4 µM
[11] = HPLM + 10% dialyzed FBS, 46.1 µM
[12] = RPMI 5 mM glucose + 10% dialyzed FBS, 0.000781 µM
[13] = RPMI 5 mM glucose + 10% dialyzed FBS, 0.00234 µM
[14] = RPMI 5 mM glucose + 10% dialyzed FBS, 0.00702 µM
[15] = RPMI 5 mM glucose + 10% dialyzed FBS, 0.0211 µM
[16] = RPMI 5 mM glucose + 10% dialyzed FBS, 0.0632 µM
[17] = RPMI 5 mM glucose + 10% dialyzed FBS, 0.19 µM
[18] = RPMI 5 mM glucose + 10% dialyzed FBS, 0.569 µM
[19] = RPMI 5 mM glucose + 10% dialyzed FBS, 1.71 µM
[20] = RPMI 5 mM glucose + 10% dialyzed FBS, 5.12 µM
[21] = RPMI 5 mM glucose + 10% dialyzed FBS, 15.4 µM
[22] = RPMI 5 mM glucose + 10% dialyzed FBS, 46.1 µM
[23] = RPMI 5 mM glucose + 10% FBS, 0.000781 µM
[24] = RPMI 5 mM glucose + 10% FBS, 0.00234 µM
[25] = RPMI 5 mM glucose + 10% FBS, 0.00702 µM
[26] = RPMI 5 mM glucose + 10% FBS, 0.0211 µM
[27] = RPMI 5 mM glucose + 10% FBS, 0.0632 µM
[28] = RPMI 5 mM glucose + 10% FBS, 0.19 µM
[29] = RPMI 5 mM glucose + 10% FBS, 0.569 µM
[30] = RPMI 5 mM glucose + 10% FBS, 1.71 µM
[31] = RPMI 5 mM glucose + 10% FBS, 5.12 µM
[32] = RPMI 5 mM glucose + 10% FBS, 15.4 µM
[33] = RPMI 5 mM glucose + 10% FBS, 46.1 µM

Row | SMILES | cell viability [1] [%] | cell viability [2] [%] | cell viability [3] [%] | cell viability [4] [%] | cell viability [5] [%] | cell viability [6] [%] | cell viability [7] [%] | cell viability [8] [%] | cell viability [9] [%] | cell viability [10] [%] | cell viability [11] [%] | cell viability [12] [%] | cell viability [13] [%] | cell viability [14] [%] | cell viability [15] [%] | cell viability [16] [%] | cell viability [17] [%] | cell viability [18] [%] | cell viability [19] [%] | cell viability [20] [%] | cell viability [21] [%] | cell viability [22] [%] | cell viability [23] [%] | cell viability [24] [%] | cell viability [25] [%] | cell viability [26] [%] | cell viability [27] [%] | cell viability [28] [%] | cell viability [29] [%] | cell viability [30] [%] | cell viability [31] [%] | cell viability [32] [%] | cell viability [33] [%]
1 | N[C@@H](C(=O)N[C@H]1[C@H]2SC\C(=C(/N2C1=O)C(O)=O)Cl)C3=CC=CC=C3 | 104 | 101 | 118 | 108 | 117 | 110 | 118 | 108 | 115 | 128 | 132 | 119 | 135 | 117 | 149 | 137 | 126 | 147 | 150 | 120 | 131 | 129 | – | – | – | – | – | – | – | – | – | – | –
2 | NC(=O)c1ccc(-c2nc(-c3ccc4c(c3)OCCO4)c(-c3ccccn3)[nH]2)cc1 | 116 | 124 | 109 | 119 | 120 | 136 | 135 | 132 | 143 | 130 | 126 | 119 | 126 | 111 | 137 | 121 | 118 | 124 | 131 | 122 | 138 | 146 | 100 | 112 | 96.3 | 114 | 105 | 111 | 102 | 110 | 119 | 112 | 108
3 | CN(C)Cc1ccc(-c2nc3cccc4c3n2CCNC4=O)cc1 | 100 | 105 | 93.5 | 114 | 114 | 118 | 122 | 121 | 127 | 119 | 113 | 91.4 | 96.3 | 107 | 94.7 | 97.8 | 107 | 93 | 98.7 | 105 | 110 | 98.3 | 103 | 106 | 119 | 117 | 109 | 127 | 94.7 | 120 | 129 | 109 | 115
4 | O=C1\C=C(/OC2=C1C=CC=C2C3=CC=CC=C3)N4CCOCC4 | 45.8 | 90.5 | 89.2 | 80.6 | 65.1 | 89.3 | 90.3 | 59 | 87.3 | 92.3 | 58.3 | 48.9 | 90 | 88.3 | 94.4 | 66.7 | 80 | 86.5 | 61.9 | 101 | 84.7 | 62.7 | 71.7 | 114 | 111 | 115 | 75.6 | 91.8 | 110 | 74 | 114 | 94.6 | 79.6
5 | COc1cc2c(N3CCN(C(=O)Nc4ccc(OC(C)C)cc4)CC3)ncnc2cc1OCCCN1CCCCC1 | 66.4 | 73.3 | 82.7 | 93.8 | 56.3 | 32.1 | 41.1 | 33.8 | 38 | 13.8 | 15.1 | 82.2 | 85.2 | 83.3 | 77.8 | 65 | 35.5 | 37.3 | 26.1 | 27.6 | 14.1 | 12.8 | 89.5 | 104 | 116 | 98.1 | 73 | 66.8 | 51.3 | 39.1 | 46.6 | 16.2 | 22.6
6 | CC(C)C[C@H](CN)CC(=O)O | 110 | 116 | 105 | 111 | 97.6 | 98.8 | 115 | 102 | 119 | 37.9 | 93.9 | 101 | 105 | 107 | 103 | 110 | 102 | 113 | 109 | 97.1 | 38.8 | 110 | 102 | 102 | 98.7 | 105 | 93.9 | 88.7 | 104 | 113 | 103 | 41.2 | 92.1
7 | COc1cc2nccc(Oc3ccc(NC(=O)Nc4ccc(F)cc4F)c(F)c3)c2cc1OC | 103 | 86 | 63.8 | 74.4 | 50.7 | 32.3 | 41.6 | 42.2 | 34.9 | 36.4 | 20 | 72.7 | 89 | 51.1 | 62.2 | 41.6 | 37 | 34.1 | 36.4 | 33.4 | 33.3 | 12.6 | 118 | 115 | 87.7 | 88.9 | 71.9 | 59 | 55.9 | 51.6 | 56.4 | 53.6 | 13.3
8 | Cc1ccc(NC(=O)c2ccc(CN3CCN(C)CC3)cc2)cc1Nc1nccc(-c2cccnc2)n1 | 68.4 | 92.2 | 114 | 101 | 104 | 111 | 96.5 | 101 | 99.2 | 101 | 93.9 | 72 | 103 | 100 | 94.7 | 114 | 107 | 96.6 | 112 | 80.1 | 100 | 86.6 | 81.2 | 114 | 134 | 134 | 124 | 140 | 115 | 114 | 109 | 110 | 99.4
9 | C[C@@H]1CC[C@@]2(OC1)O[C@H]3C[C@H]4[C@@H]5C/C=C6/C[C@H](CC[C@]6(C)[C@H]5CC[C@]4(C)[C@H]3[C@@H]2C)O[C@@H]7O[C@H](CO)[C@@H](O[C@@H]8O[C@@H](C)[C@H](O)[C@@H](O)[C@H]8O)[C@H](O)[C@H]7O[C@@H]9O[C@@H](C)[C@H](O)[C@@H](O)[C@H]9O | 92.6 | 79.3 | 97.5 | 110 | 114 | 117 | 118 | 115 | 111 | 73.9 | 8.36 | 110 | 116 | 114 | 116 | 139 | 104 | 122 | 119 | 119 | 55 | 7.66 | – | – | – | – | – | – | – | – | – | – | –
10 | O=C1NC(=O)[C@@H](c2cn3c4c(cccc24)CCC3)[C@@H]1c1c[nH]c2ccccc12 | 91.6 | 98.3 | 111 | 99.9 | 93.8 | 75.2 | 96.5 | 39.9 | 25.5 | 22.3 | 28.9 | 90.6 | 98.5 | 103 | 84.1 | 114 | 83.2 | 102 | 39.1 | 22.7 | 16.4 | 34.4 | 117 | 114 | 113 | 115 | 124 | 76.2 | 88 | 27.4 | 20.6 | 16.2 | 22.5
11 | C=C(C)[C@@H]1CC[C@]2(C)CC[C@]3(C)[C@H](CC[C@@H]4[C@@]5(C)CC[C@H](O)C(C)(C)[C@@H]5CC[C@]43C)[C@@H]12 | 86.4 | 103 | 101 | 91.6 | 89 | 100 | 11 | 109 | 111 | 123 | 121 | 81.3 | 98.5 | 104 | 99.3 | 102 | 108 | 8.47 | 111 | 101 | 90.5 | 104 | 97.5 | 107 | 112 | 103 | 104 | 113 | 10 | 110 | 135 | 126 | 124
12 | Clc1cccc(-c2nnnn2Cc2cccnc2)c1Cl | 79.7 | 81.9 | 67 | 92.9 | 101 | 103 | 92.6 | 57.7 | 49.4 | 50.2 | 45 | 87.5 | 85.7 | 75 | 93.4 | 91.7 | 99.4 | 102 | 62 | 56 | 58.4 | 46.6 | 101 | 92 | 70.1 | 102 | 95.3 | 95 | 74.6 | 46.4 | 40.4 | 42 | 35.9
13 | CNC(=O)[C@H](Cc1ccccc1)NC(=O)[C@H](CC(C)C)[C@H](CSc1cccs1)C(=O)NO | 83 | 82.9 | 90 | 96 | 87.5 | 110 | 100 | 95.7 | 80.4 | 57.7 | 24.5 | 86.5 | 69.4 | 75.4 | 82.2 | 67.2 | 81.7 | 90.6 | 78.4 | 70.6 | 40.4 | 21.5 | 95.9 | 75.4 | 96.3 | 105 | 74.8 | 90.6 | 89.8 | 97.6 | 77.7 | 45.8 | 25.4
14 | CC(C)(C)/[N+]([O-])=C/c1ccc([S+](=O)([O-])[O][Na])cc1[S+](=O)([O-])[O][Na] | 88.7 | 76.3 | 84.5 | 99.9 | 84.6 | 98.6 | 101 | 90.3 | 88.1 | 99.2 | 94.9 | 95.7 | 105 | 102 | 94.1 | 98.8 | 120 | 117 | 104 | 113 | 105 | 110 | 115 | 83.1 | 86.9 | 109 | 105 | 124 | 110 | 108 | 116 | 91.2 | 108
15 | COc1cc2nccc(Oc3ccc(NC(=O)C4(C(=O)Nc5ccc(F)cc5)CC4)cc3)c2cc1OC | 87.6 | 90.6 | 71.2 | 52.1 | 53.5 | 48.7 | 52.9 | 48.3 | 47.1 | 30.4 | 16.7 | 71.3 | 71.6 | 57.2 | 42.3 | 47.9 | 43.7 | 41.1 | 46.4 | 40.1 | 26.9 | 12.6 | 92.2 | 89.2 | 79.6 | 62.2 | 58.9 | 55.4 | 56 | 51.7 | 46.7 | 31.2 | 5.48
